{"source": "PubChem BioAssay AID504564", "about": "(Southern Research Specialized Biocontainment Screening …, 2011)", "key": {"[1]": {"test_system": "M. tuberculosis H37Rv growth inhibition, no glycerol", "assay": "Confirmatory growth inhibition assay, M. tuberculosis H37Rv, no glycerol, purified compounds (AID 504564)", "conditions": "for IC90: 90% growth inhibition concentration"}, "[2]": {"assay": "Confirmatory growth inhibition assay, M. tuberculosis H37Rv, no glycerol, purified compounds (AID 504564)", "conditions": "M. tuberculosis H37Rv growth inhibition, no glycerol; at 25 µM (top of the series)"}}, "note": "The source made the active and inactive calls. How the calls were made is not given here. Where a SMILES comes first, the peptide text is derived from it."}
{"compound": "Cc1cccc(-c2oc3ccc(-c4ccc5c(c4)OCO5)cc3c2C#Cc2cncn2C)c1", "values": [{"measurement": "IC50", "setting": "[1]", "value": 2220, "unit": "nM"}, {"measurement": "IC90", "setting": "[1]", "value": 2930, "unit": "nM"}]}
{"compound": "CC1CCN(C(=O)C2CCN(c3nnc(-n4cccc4)s3)CC2)CC1", "values": [{"measurement": "IC50", "setting": "[1]", "value": 1150, "unit": "nM"}, {"measurement": "IC90", "setting": "[1]", "value": 2830, "unit": "nM"}]}
{"compound": "COC(=O)c1ccc(CNc2c(N3CCCC3)c(=O)c2=O)cc1", "values": [{"measurement": "growth inhibition", "setting": "[2]", "value": "-5.07% (inactive)"}]}
{"compound": "O=C1C(Br)=Cc2cccc3cccc1c23", "values": [{"measurement": "IC50", "setting": "[1]", "value": 60, "unit": "nM"}, {"measurement": "IC90", "setting": "[1]", "value": 170, "unit": "nM"}]}
{"compound": "Cc1nc(SCC(=O)NC2CCCCC2)[nH]c(=O)c1C", "values": [{"measurement": "IC50", "setting": "[1]", "value": 250, "unit": "nM"}, {"measurement": "IC90", "setting": "[1]", "value": 740, "unit": "nM"}]}
{"compound": "COC(=O)CCc1nc2c(C#N)c(-c3ccc(Cl)cc3)ccn2n1", "values": [{"measurement": "IC50", "setting": "[1]", "value": 840, "unit": "nM"}, {"measurement": "IC90", "setting": "[1]", "value": 3540, "unit": "nM"}]}
{"compound": "COc1cc(NC(=O)C/C(C)=N/NC(=O)c2ccccn2)c(OC)cc1Cl", "values": [{"measurement": "IC50", "setting": "[1]", "value": 2060, "unit": "nM"}, {"measurement": "IC90", "setting": "[1]", "value": 6770, "unit": "nM"}]}
{"compound": "CC[N+](C)(CC)CCCCOc1ccc2c(c1)C(=O)c1cc(OCCCC[N+](C)(CC)CC)ccc1-2", "values": [{"measurement": "IC50", "setting": "[1]", "value": 700, "unit": "nM"}, {"measurement": "IC90", "setting": "[1]", "value": 1200, "unit": "nM"}]}
{"compound": "COC(=O)C1CC(=O)N(c2ccc(OCc3ccccc3Cl)cc2)C1", "note": "(stereo not given)", "values": [{"measurement": "IC50", "setting": "[1]", "value": 340, "unit": "nM"}, {"measurement": "IC90", "setting": "[1]", "value": 2630, "unit": "nM"}]}
{"compound": "O=C(/C=C\\c1cccs1)N1CCN(Cc2ccc3c(c2)OCO3)CC1", "values": [{"measurement": "IC50", "setting": "[1]", "value": 140, "unit": "nM"}, {"measurement": "IC90", "setting": "[1]", "value": 330, "unit": "nM"}]}
{"compound": "COC(=O)C(Nc1nc(SCC(=O)NC2CCCCC2)nc2ccccc12)c1ccccc1", "note": "(stereo not given)", "values": [{"measurement": "growth inhibition", "setting": "[2]", "value": "3.49% (inactive)"}]}
{"compound": "CCOC(=O)C(C)Sc1ncnc2c1nnn2-c1ccc(F)cc1", "note": "(stereo not given)", "values": [{"measurement": "IC50", "setting": "[1]", "value": 450, "unit": "nM"}, {"measurement": "IC90", "setting": "[1]", "value": 4760, "unit": "nM"}]}
{"compound": "CCOC(=O)c1ccc(NC(=O)Cn2ncc(Cl)c(Cl)c2=O)cc1", "values": [{"measurement": "IC50", "setting": "[1]", "value": 90, "unit": "nM"}, {"measurement": "IC90", "setting": "[1]", "value": 280, "unit": "nM"}]}
{"compound": "Cc1cccc(/C=C/C(=O)c2ccc([N+](=O)[O-])o2)c1", "values": [{"measurement": "IC50", "setting": "[1]", "value": 20, "unit": "nM"}, {"measurement": "IC90", "setting": "[1]", "value": 20, "unit": "nM"}]}
{"compound": "S=c1nc[nH]c2nc[nH]c12", "values": [{"measurement": "IC50", "setting": "[1]", "value": 1030, "unit": "nM"}, {"measurement": "IC90", "setting": "[1]", "value": 1520, "unit": "nM"}]}
{"compound": "c1ccc(/N=C2\\N=C(Nc3ccccn3)c3ccccc32)nc1", "values": [{"measurement": "IC50", "setting": "[1]", "value": 20, "unit": "nM"}, {"measurement": "IC90", "setting": "[1]", "value": 30, "unit": "nM"}]}
{"compound": "CCc1ccc(/C=C2/C(=O)N(C)C(=S)N2CC(=O)OC)s1", "values": [{"measurement": "IC50", "setting": "[1]", "value": 460, "unit": "nM"}, {"measurement": "IC90", "setting": "[1]", "value": 1910, "unit": "nM"}]}
{"compound": "CC(C)NC(=O)c1sc(=S)n2c1[nH]c(=O)c1ccc(C(=O)NCCc3ccc(Cl)cc3)cc12", "values": [{"measurement": "IC50", "setting": "[1]", "value": 210, "unit": "nM"}, {"measurement": "IC90", "setting": "[1]", "value": 430, "unit": "nM"}]}
{"compound": "Cc1cc(Br)ccc1NC(=O)c1cnc(N2CCN(c3ccccn3)CC2)c2ccccc12", "values": [{"measurement": "IC50", "setting": "[1]", "value": 850, "unit": "nM"}, {"measurement": "IC90", "setting": "[1]", "value": 2540, "unit": "nM"}]}
{"compound": "CCC(C)Nc1ccc(NC(C)CC)cc1", "note": "(stereo not given)", "values": [{"measurement": "IC50", "setting": "[1]", "value": 590, "unit": "nM"}, {"measurement": "IC90", "setting": "[1]", "value": 990, "unit": "nM"}]}
{"compound": "O=C(CSc1nc2ccccc2c(=O)[nH]1)NC1CCCCC1", "values": [{"measurement": "IC50", "setting": "[1]", "value": "< 10", "unit": "nM"}, {"measurement": "IC90", "setting": "[1]", "value": "< 10", "unit": "nM"}]}
{"compound": "COC(=O)c1cc(=O)n(-c2ccc(F)cc2)c(=Nc2ccc(F)cc2)s1", "values": [{"measurement": "IC50", "setting": "[1]", "value": 300, "unit": "nM"}, {"measurement": "IC90", "setting": "[1]", "value": 1100, "unit": "nM"}]}
{"compound": "CNc1nc(SCc2ccccc2Cl)nc2c1CCCC2", "values": [{"measurement": "IC50", "setting": "[1]", "value": 430, "unit": "nM"}, {"measurement": "IC90", "setting": "[1]", "value": 1060, "unit": "nM"}]}
{"compound": "CCOC(=O)CNC(=O)[C@H](Cc1ccccc1)NC(=O)OCc1ccccc1", "note": "(HELM PEPTIDE1{[O=C(OCc1ccccc1)[*:2]].F.G.[CCO[*:1]]}$$$$V2.0)", "values": [{"measurement": "IC50", "setting": "[1]", "value": 1080, "unit": "nM"}, {"measurement": "IC90", "setting": "[1]", "value": 2500, "unit": "nM"}]}
{"compound": "O=C(NCC(c1cccs1)N1CCOCC1)c1cc([N+](=O)[O-])cc([N+](=O)[O-])c1", "note": "(stereo not given)", "values": [{"measurement": "IC50", "setting": "[1]", "value": 150, "unit": "nM"}, {"measurement": "IC90", "setting": "[1]", "value": 310, "unit": "nM"}]}
{"compound": "COC(=O)C(C)Oc1ccc(-c2nccc(-c3ccccn3)n2)cc1", "note": "(stereo not given)", "values": [{"measurement": "IC50", "setting": "[1]", "value": 1640, "unit": "nM"}, {"measurement": "IC90", "setting": "[1]", "value": 4320, "unit": "nM"}]}
{"compound": "CCOC(=O)COc1ccc(/C=C2\\NC(=S)N(CC)C2=O)cc1", "values": [{"measurement": "IC50", "setting": "[1]", "value": 1680, "unit": "nM"}, {"measurement": "IC90", "setting": "[1]", "value": 4460, "unit": "nM"}]}
{"compound": "O=C(CSc1nc2ccccc2c(=O)[nH]1)NCc1ccc(Cl)cc1", "values": [{"measurement": "IC50", "setting": "[1]", "value": 300, "unit": "nM"}, {"measurement": "IC90", "setting": "[1]", "value": 660, "unit": "nM"}]}
{"compound": "CCOC(=O)COn1c2c(c3c4no[n+]([O-])c4ccc31)CCCC2", "values": [{"measurement": "IC50", "setting": "[1]", "value": 1580, "unit": "nM"}, {"measurement": "IC90", "setting": "[1]", "value": 3040, "unit": "nM"}]}
{"compound": "Cc1nn2c(NCc3ccccn3)cc(C(C)C)nc2c1-c1ccccc1", "values": [{"measurement": "IC50", "setting": "[1]", "value": 640, "unit": "nM"}, {"measurement": "IC90", "setting": "[1]", "value": 1200, "unit": "nM"}]}
{"compound": "O=C(/C=C/c1ccccc1)N1CCN(CCN2C(=O)c3cccc4cccc(c34)C2=O)CC1", "values": [{"measurement": "IC50", "setting": "[1]", "value": 1520, "unit": "nM"}, {"measurement": "IC90", "setting": "[1]", "value": 4020, "unit": "nM"}]}
{"compound": "Cc1ccc2c(c1)c(C1=c3ccccc3=NC1=O)c(O)n2C", "values": [{"measurement": "IC50", "setting": "[1]", "value": 490, "unit": "nM"}, {"measurement": "IC90", "setting": "[1]", "value": 1500, "unit": "nM"}]}
{"compound": "Oc1ccccc1/C=N/Nc1ccnc(SCc2ccccc2)n1", "values": [{"measurement": "growth inhibition", "setting": "[2]", "value": "0.48% (inactive)"}]}
{"compound": "Nc1c(C(=O)NC2CCCCC2)nsc1C(=O)OCC(=O)NC1CCCCC1", "values": [{"measurement": "IC50", "setting": "[1]", "value": 450, "unit": "nM"}, {"measurement": "IC90", "setting": "[1]", "value": 1230, "unit": "nM"}]}
{"compound": "Cc1ccc2ccc3ccc(C)nc3c2n1", "values": [{"measurement": "IC50", "setting": "[1]", "value": 160, "unit": "nM"}, {"measurement": "IC90", "setting": "[1]", "value": 450, "unit": "nM"}]}
{"compound": "Cc1ccc(C(=O)N/N=C(/CC(=O)c2cccs2)C(F)(F)F)cc1", "values": [{"measurement": "IC50", "setting": "[1]", "value": 560, "unit": "nM"}, {"measurement": "IC90", "setting": "[1]", "value": 890, "unit": "nM"}]}
{"compound": "CC(=NCc1ccc2c(c1)OCO2)C1=C(O)c2ccccc2C1=O", "values": [{"measurement": "IC50", "setting": "[1]", "value": 70, "unit": "nM"}, {"measurement": "IC90", "setting": "[1]", "value": 600, "unit": "nM"}]}
{"compound": "Cc1ccc(NC(=O)C2C3/C=C\\CCCCC32)cc1C", "note": "(stereo not given)", "values": [{"measurement": "IC50", "setting": "[1]", "value": 1870, "unit": "nM"}, {"measurement": "IC90", "setting": "[1]", "value": "> 25000", "unit": "nM"}]}
{"compound": "CCOC1OC(=O)C(Cl)=C1Nc1ccccc1C", "note": "(stereo not given)", "values": [{"measurement": "IC50", "setting": "[1]", "value": 2660, "unit": "nM"}, {"measurement": "IC90", "setting": "[1]", "value": 4410, "unit": "nM"}]}
